Where two headings read alike, the source gives them in different places.

By IC50 is commonly meant the concentration at which inhibition is half-maximal. As a reminder, the EC50 is the concentration needed to bring the measured effect to its halfway point. High values mean weaker potency, low ones greater potency.

Experiment [1] has as its system IFNα stimulated Kit225 T cells (STAT-dependent luciferase reporter). Briefly: Kit225 T cell assay, IFNα-stimulated STAT-dependent luciferase reporter. Format: cell-based, human. The note with it: 200 U/mL human recombinant IFNα, 5-6 hours, read-out: IFNα Kit225 Reporter (IC50). The gist of the method: (§1)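 Kit225 T cells carrying a stable STAT-dependent luciferase reporter, stimulated 5-6 h with 20 ng/mL human IL-23 or 200 U/mL human IFNα. Luminescence read out; % inhibition derived against unstimulated (100%) and no-inhibitor (0%) controls.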
For orientation: A reporter such as luciferase makes a cellular process visible.

In experiment [2] the test system is IL-23 stimulated Kit225 T cells (STAT-dependent luciferase reporter). Briefly: Kit225 T cell assay, IL-23-stimulated STAT-dependent luciferase reporter. Format: cell-based, human. To be noted: 20 ng/mL human recombinant IL-23, 5-6 hours, read-out: IL-23 Kit225 Reporter (IC50). The essentials:
as §1

In experiment [3] the target is His-tagged protein corresponding to amino acids 575-869 of human Tyk2 (Homo sapiens (Human), UniProt P29597). Kind of experiment: Probe displacement assay (scintillation proximity, radiolabeled probe). Type of experiment: binding. To be noted: 2.5 nM Tyk2 (575-869), 40 nM [3H] probe, 30 minutes at room temperature. As to the method: The probe displacement assay is conducted as follows: In a […], test compounds along with recombinantly expressed His-tagged protein corresponding to amino acids 575-869 of human Tyk2 (sequence shown below) at 2.5 nM, 40 nM ((R)—N-(1-(3-(8-methyl-5-(methylamino)-8H-imidazo[4,5-d]thiazolo[5,4-b]pyridin-2-yl)phenyl)ethyl)-2-([^3H]methylsulfonyl)benzamide) (preparation described below) and 80 μg/mL Copper His-Tag scintillation proximity assay beads (Perkin Elmer, Catalog #RPNQ0095) in 50 mM HEPES, pH 7.5, containing 100 μg/mL bovine serum albumin and 5% DMSO were incubated for 30 minutes at room temperature.
Protein Sequence of recombinant Hig-tagged Tyk2 (575-869):
The preparation of radiolabeled probe, (R)—N-(1-(3-(8-methyl-5-(methylamino)-8H-imidazo[4,5-d]thiazolo[5,4-b]pyridin-2-yl)phenyl)ethyl)-2-([^3H]methylsulfonyl)benzamide, was performed as described below.
Background: In a scintillation proximity assay essentially only radioactivity close to the scintillant gives light.

Sequence of His-tagged protein corresponding to amino acids 575-869 of human Tyk2 (P29597 other isoform, or with tags, fused parts or gaps): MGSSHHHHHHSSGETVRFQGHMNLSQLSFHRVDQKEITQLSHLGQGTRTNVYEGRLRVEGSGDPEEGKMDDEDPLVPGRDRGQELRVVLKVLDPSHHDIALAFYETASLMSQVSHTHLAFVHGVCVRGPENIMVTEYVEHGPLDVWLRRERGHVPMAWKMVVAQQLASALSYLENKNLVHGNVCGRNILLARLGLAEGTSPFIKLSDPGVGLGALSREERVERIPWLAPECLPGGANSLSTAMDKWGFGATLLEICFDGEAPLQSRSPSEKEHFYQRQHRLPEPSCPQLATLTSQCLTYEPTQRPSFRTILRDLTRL

In the case of `CCNC(=O)c1nnc(Nc2ccc(F)cn2)cc1Nc1ccccc1S(C)(=O)=O` [Example 4], the 50% inhibitory concentration (IC50) in experiment [1] was determined as 1150 nM; in experiment [2], 2300 nM. The same molecule gave a concentration for a half-maximal effect (EC50) in experiment [3] of 130 nM.
The corresponding values for `CS(=O)(=O)c1ccccc1Nc1cc(Nc2ccc(F)cn2)nnc1C(=O)NC1CC1` [Example 5] are 6360 nM, 12500 nM and 410 nM.
Taken in the same sequence, the figures for `CNC(=O)c1nnc(Nc2ccccn2)cc1Nc1ccccc1S(C)(=O)=O` [Example 16] were 20 nM, 40 nM and 6.57 nM.
In the case of `CNC(=O)c1nnc(Nc2cc(COC)ccn2)cc1Nc1ccccc1S(C)(=O)=O` [Example 51], the values for the IC50 in experiment [1] and in experiment [2] were 20 nM and 40 nM, respectively. Moreover, the midpoint of the response in experiment [3], the EC50, lay at 7.19 nM.
For `CNC(=O)c1nnc(NC(=O)C2CC2)cc1Nc1cccc(-c2ccc(C)nn2)c1OC` [Example 69], the IC50 in experiment [1] turned out to be 160 nM; in experiment [2] it was 380 nM. Further, the EC50 in experiment [3] turned out to be 70 nM.
Taken in the same sequence, the figures for `CNC(=O)c1nnc(Nc2ccccn2)cc1Nc1cccc(-c2nc(C)cs2)c1OC` [Example 73] were 50 nM, 80 nM and 5.21 nM.
Taken in the same sequence, the figures for `CNC(=O)c1nnc(Nc2ccccn2)cc1Nc1cccc(-c2ncn(C)n2)c1OC` [Example 76] were 3.49 nM, 1.99 nM and 6.17 nM.
Taken in the same sequence, the figures for `CNC(=O)c1nnc(Nc2cc(C(C)O)ccn2)cc1Nc1cccc(-c2ncn(C)n2)c1OC` (stereo not shown) [Example 84] were 9.39 nM, 20 nM and 1.28 nM.
For `CNC(=O)c1nnc(Nc2cc(C)n(C)n2)cc1Nc1cccc(-c2cnn(C)c2)c1OC` [Example 85], the concentration for half-maximal inhibition (IC50) in experiment [1] was determined as 50 nM; in experiment [2], 170 nM. This molecule gave an EC50 in experiment [3] of 7.36 nM.
The corresponding values for `CNC(=O)c1nnc(Nc2ccncn2)cc1Nc1cccc(-c2ncn(C)n2)c1OC` [Example 94] are 8.59 nM, 30 nM and 1.72 nM.
Taken in the same sequence, the figures for `CNC(=O)c1nnc(Nc2ccc(CO)cn2)cc1Nc1cccc(-c2ncn(C)n2)c1OC` [Example 102] were 30 nM, 40 nM and 1.59 nM.
Taken in the same sequence, the figures for `CNC(=O)c1nnc(Nc2cc(C)nc(C)n2)cc1Nc1cccc(-c2ncn(C)n2)c1OC` [Example 108] were 3.54 nM, 8.49 nM and 1.46 nM.
Turning to `CNC(=O)c1nnc(Nc2cnccn2)cc1Nc1cccc(-c2ncccn2)c1OC` [Example 112], the IC50 in experiment [1] is 3.72 nM; in experiment [2] it was 7.49 nM. Further, in experiment [3], the concentration giving a half-maximal response (EC50) turned out to be 1.94 nM.
The corresponding values for `CNC(=O)c1nnc(Nc2cc(C)nc(COC)n2)cc1Nc1cccc(-c2ncn(C)n2)c1OC` [Example 114] are 3.77 nM, 8.29 nM and 1.89 nM.
The corresponding values for `CNC(=O)c1nnc(NC(=O)C2CC2)cc1Nc1ccccc1OC` [Example 125] are 430 nM, 170 nM and 110 nM.
In the case of `CNC(=O)c1nnc(Nc2cc(NC(=O)C3CC3)nc(C)n2)cc1Nc1cccc(-c2ncn(C)n2)c1OC` [Example 134], the figures for the IC50 in experiment [1] and in experiment [2] were 10 nM and 30 nM, respectively. The same molecule displayed an EC50 in experiment [3] of 5.64 nM.
With `CNC(=O)c1nnc(Nc2cc(C)c(F)cn2)cc1Nc1cccc(-c2n[nH]c(C)n2)c1OC` [Example 142], the IC50 in experiment [1] was 4.3 nM; in experiment [2], 6.59 nM. In experiment [3], this molecule returned an EC50 of 6.95 nM.
The corresponding values for `CNC(=O)c1nnc(NC(=O)C2CC2)cc1Nc1cccc(-c2nnn(C)n2)c1OC` [Example 146] are 5.33 nM, 10 nM and 1.7 nM.
The corresponding values for `CNC(=O)c1nnc(Nc2ccccn2)cc1Nc1cccc(-c2nnn(C)n2)c1OC` [Example 147] are 4.42 nM, 1.01 nM and 0.877 nM.
Regarding `CNC(=O)c1nnc(Nc2ccccn2)cc1Nc1cccc(-c2nnc(C)o2)c1OC` [Example 151], the IC50 in experiment [1] and in experiment [2] was 20 nM throughout. In experiment [3], a half-maximal effect (EC50) was put at 7.22 nM.
Turning to `CNC(=O)c1nnc(NC(=O)C2CC2)cc1Nc1cccc(-c2nnc(C)s2)c1OC` [Example 154], the concentration for half-maximal inhibition (IC50) in experiment [1] was determined as 430 nM; in experiment [2], 590 nM. Also, the EC50 in experiment [3] turned out to be 90 nM.
The corresponding values for `CNC(=O)c1nnc(Nc2ccccn2)cc1Nc1cccc(-c2nnc(C)s2)c1OC` [Example 155] are 30 nM, 30 nM and 7.13 nM.
For the molecule `CNC(=O)c1nnc(NC(=O)C2CC2)cc1Nc1cccc(-c2cnc(C)s2)c1OC` [Example 160], the IC50 in experiment [1] amounted to 310 nM; in experiment [2], 410 nM. Also, the concentration for a half-maximal effect (EC50) in experiment [3] came out at 70 nM.
With `CNC(=O)c1nnc(NC(=O)C2CC2)cc1Nc1cccc(-c2ncn(CC(F)F)n2)c1OC` [Example 176], the results for the 50% inhibitory concentration (IC50) in experiment [1] and in experiment [2] were 20 nM and 40 nM, respectively. The midpoint of the response in experiment [3], the EC50, lay at 6.35 nM.
As for `CNC(=O)c1nnc(Nc2cc(C)nc(C)n2)cc1Nc1cccc(-c2nc(C)n(C)n2)c1OC` [Example 183], the half-maximal inhibitory concentration (IC50) is 3.67 nM in experiment [1] and 30 nM in experiment [2]. In addition, a half-maximal effect in experiment [3] (EC50) was put at 5.72 nM.
Taken in the same sequence, the figures for `CNC(=O)c1nnc(NC(=O)C2CC2)cc1Nc1cccc(-c2cnn(CCF)c2)c1OC` [Example 186] were 80 nM, 170 nM and 60 nM.
In the case of `CNC(=O)c1nnc(NC(=O)C2CC2)cc1Nc1cccc(-c2cc(C)no2)c1OC` [Example 194], the 50% inhibitory concentration (IC50) in experiment [1] was 410 nM; in experiment [2] it was 630 nM. The molecule also yielded an EC50 in experiment [3] of 80 nM.
Regarding `CNC(=O)c1nnc(Nc2ccccn2)cc1Nc1cccc(-c2ccnn2C)c1OC` [Example 199], the figures for the half-inhibitory concentration (IC50) in experiment [1] and in experiment [2] were 230 nM and 190 nM, respectively.
`[2H]C([2H])([2H])NC(=O)c1nnc(NC(=O)C2CC2)cc1Nc1cccc(-c2cc(C)[nH]n2)c1OC` [Example 200]: the IC50 in experiment [1] (KIT225) worked out at 30 nM; in experiment [2] (KIT225) it was 80 nM.
As for `COc1c(Nc2cc(NC(=O)C3CC3)nnc2C(N)=O)cccc1-c1ncn(C)n1` [Example 201], the results for the IC50 in experiment [1] and in experiment [2] were 4.13 nM and 20 nM, respectively.
For the molecule `[2H]C([2H])([2H])NC(=O)c1nnc(NC(=O)C2CC2)cc1Nc1cccc(C#N)c1OC` [Example 202, 4-((3-cyano-2-methoxyphenyl)amino)-6-(cyclopropanecarboxamido)-N-trideuteromethylpyridazine-3-carboxamide], the IC50 in experiment [1] (KIT225) was determined as 330 nM; in experiment [2] (KIT225) it was 290 nM.
In the case of `CNC(=O)c1nnc(Nc2ccccn2)cc1Nc1cccc(-c2nnc(C)o2)c1SC` [Example 203], the concentration for half-maximal inhibition (IC50) in experiment [1] was 110 nM; in experiment [2] it was 310 nM.
`CNC(=O)c1nnc(Nc2ccccn2)cc1Nc1cccc(-c2nnc[nH]2)c1SC` [Example 204, N-methyl-4-((2-(methylthio)-3-(4H-1,2,4-triazol-3-yl)phenyl)amino)-6-(pyridin-2-ylamino)pyridazine-3-carboxamide]: the IC50 in experiment [1] (KIT225) was determined as 20 nM; in experiment [2] (KIT225), 70 nM.
Take `CNC(=O)c1nnc(Nc2ccccn2)cc1Nc1cccc(-c2ncn(C)n2)c1SC` [Example 205]: the IC50 is 50 nM in experiment [1] (KIT225) and 140 nM in experiment [2] (KIT225).
Taken in the same sequence, the figures for `CNC(=O)c1nnc(Nc2ccccn2)cc1Nc1cccc(-c2noc(C)n2)c1OC` [Example 206] were 0.712 nM and 4.38 nM.

Source of the values: patent publication US11021475B2, “Amide-substituted heterocyclic compounds useful as modulators of IL-12, IL-23 and/or IFN alpha responses” (Bristol-Myers Squibb Company, priority 2012, dated 2021).
